# Reference: patent US9956176B2, “Compositions and methods for treating ewing sarcoma” (priority 2014, dated 2018)
# d = 2'-deoxy (DNA); m = 2'-O-methyl
# Legend:
# FEZF1-AS1 = FEZF1-AS1 expression in A673 cells; format: cell-based, human
# [1] = tested on: human Acute Lymphoblastic Leukemia (REH cells); assay: REH-Luc leukemia xenograft, tumor burden by Xenogen camera; format: in vivo, mouse
# Description: (§1) To complete the mouse efficacy and safety studies we injected NOG mice with 6×10^6 luciferase transfected human Acute Lymphoblastic Leukemia (REH cells). This special transgenic type of mouse has deletions in the gene encoding the interleukin 2 receptor γ (IL2Rγ) and has added genes expressing human iL3, GM-CSF and SCF. To prevent rejection of injected human leukemia cells, the NOG mice have a complete lack of B, T, and NK cells, and a deficiency of cytokine signaling. The mice were separated into six groups. Group 1 received only buffer treatment; group 2-untargeted, unloaded HPLN; group 3-untargeted, HPLN/Dox (2 mg Dox/kg); group 4-(targeted) anti-CD-19/HPLN/Dox (2 mg Dox/kg); group 5-Doxil (2 mg Dox/kg); and group 6-(free) doxorubicin (2 mg Dox/kg).
# (§2) Upon injection of the leukemia cells, Xenogen camera images were done once per week and used to assess both tumor cell distribution and quantitative tumor burden. After 10 days post leukemia cell injection, our targeted nanoparticle drug (anti-CD-19/HPLN/Dox) or control particles or drugs, were administered to the mice, in once a week dosages. The amount of drug given was based on the active substance (doxorubicin), not on total nanoparticle mass in each formulation (except for group 2, these mice received an equivalent HPLN dose in unloaded form). […]
# [2] = format: in vivo; settings: once a week IV
# Description: as §1, §2
# RNA polymerase II = molecular target: T1, RNA polymerase II (Homo sapiens, UniProt P24928); assay: inhibition of FEZF1-AS1 transcription; format: cell-based
# T1 construct: endogenous in cells; host or cells: Ewing sarcoma cells
# Description: FEZF1-AS1 is located on human chromosome 7q31.32 on the positive strand and overlaps the first two exons of protein-coding gene, FEZF1, which lies on the opposite strand. To characterize this gene in Ewing sarcoma, we performed Northern blot analysis using different biotin-labelled probes that confirmed the 2.6 kb transcript was predominantly expressed in Ewing sarcoma. […] RNA-sequencing of two Ewing sarcoma cell lines, CHLA-9 and CHLA-10, identified multiple isoforms of the transcript, some of which included introns and/or extended beyond exon 7. CHLA-9 and CHLA-10 are Ewing sarcoma cell lines from the same patient. CHLA-9 is from the primary tumor and CHLA-10 is from the metastatic tumor. We validated some of the isoforms by PCR and Sanger sequencing. To confirm the annotation of FEZF1-AS1 as a non-coding RNA, we used the coding potential calculator algorithm that assigned a low score of −1.2 compared to scores of 5 and above for coding genes such as FLI1, and NR0B1. FEZF1-AS1 transcription was inhibited by alpha-amanitin but not by RNA Polymerase III inhibitor, thus confirming that RNA polymerase II transcribes the lncRNA. […] Thus, lncRNA FEZF1-AS1 is a highly expressed gene is Ewing sarcoma.
compound,measurement,setting,value
"5-mG*mU*mG*mU*mG*T*G*T*G*T*C*T*G*C*T*mU*mG*mU*mU*mU-3′ (antisense GUGUGTGTGTCTGCTUGUUU; sugars from the 5' end m5 d10 m5, all phosphorothioate, methylation of C not given here) [FA7]",knockdown levels,"FEZF1-AS1; A673, 48 hours",about 50%
same,FEZF1-AS1 levels reduced to,"FEZF1-AS1; A673, nucleofection, 24 hours",80%
COc1cccc2c1C(=O)c1c(O)c3c(c(O)c1C2=O)C[C@@](O)(C(=O)CO)C[C@@H]3O[C@H]1C[C@H](N)[C@H](O)[C@H](C)O1 [doxorubicin],tumor growth / tumor reduction,"[1]; 2 mg Dox/kg once a week from day 10, IV, FIG. 4",significant tumor reduction
same,tumor size and burden,"[1]; 2 mg Dox/kg, day 35, FIG. 8",markedly less
same,"tolerability, acute toxic reactions",[2],lose weight and appeared sickly
alpha-amanitin,FEZF1-AS1 transcription,RNA polymerase II,inhibited
